The supplement of paper PMC10307832

What was measured:
Assay in all cases: relative viability (nuclei count vs DMSO), 5 days (fraction); higher = more cells survive
Dinaciclib + Alpelisib = compound: CCc1cnn2c(NCc3ccc[n+]([O-])c3)cc(N3CCCC[C@H]3CCO)nc12 [Dinaciclib] + Cc1nc(NC(=O)N2CCC[C@H]2C(N)=O)sc1-c1ccnc(C(C)(C)C(F)(F)F)c1 [Alpelisib] (partner 2 µM)
Summary of the method: (§1)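 The day after seeding in 1536-well plates, lung cancer cell lines were treated by pin tool with a single drug, or with a fixed anchor-drug dose together with five library-drug doses (not always all listed) in √10 steps. After 5 days, a combined fix-and-stain solution (final 0.05% Triton X-100, 1% formaldehyde, 1 ug/ml Hoechst) was added. Nuclei counted on 4× images gave relative viability as treated counts over vehicle counts, reported as the median of duplicate plates.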

Dinaciclib + Phenformin = compound: CCc1cnn2c(NCc3ccc[n+]([O-])c3)cc(N3CCCC[C@H]3CCO)nc12 [Dinaciclib] + N=C(N)NC(=N)NCCc1ccccc1 [Phenformin] (partner 250 µM)
Summary of the method: as §1

Dinaciclib + Dasatinib = compound: CCc1cnn2c(NCc3ccc[n+]([O-])c3)cc(N3CCCC[C@H]3CCO)nc12 [Dinaciclib] + Cc1nc(Nc2ncc(C(=O)Nc3c(C)cccc3Cl)s2)cc(N2CCN(CCO)CC2)n1 [Dasatinib] (partner 0.075 µM)
Summary of the method: as §1

Dinaciclib + Lapatinib = compound: CCc1cnn2c(NCc3ccc[n+]([O-])c3)cc(N3CCCC[C@H]3CCO)nc12 [Dinaciclib] + CS(=O)(=O)CCNCc1ccc(-c2ccc3ncnc(Nc4ccc(OCc5cccc(F)c5)c(Cl)c4)c3c2)o1 [Lapatinib] (partner 2 µM)
Summary of the method: as §1

Dinaciclib + AZD7762 = compound: CCc1cnn2c(NCc3ccc[n+]([O-])c3)cc(N3CCCC[C@H]3CCO)nc12 [Dinaciclib] + NC(=O)Nc1cc(-c2cccc(F)c2)sc1C(=O)N[C@H]1CCCNC1 [AZD7762] (partner 0.2 µM)
Summary of the method: as §1

Row | Cell Line | relative viability (Dinaciclib + Alpelisib; first compound 0.009487 µM) | relative viability (Dinaciclib + Alpelisib; first compound 0.03 µM) | relative viability (Dinaciclib + Alpelisib; first compound 0.09487 µM) | relative viability (Dinaciclib + Alpelisib; first compound 0.3 µM) | relative viability (Dinaciclib + Phenformin; first compound 0.009487 µM) | relative viability (Dinaciclib + Phenformin; first compound 0.03 µM) | relative viability (Dinaciclib + Phenformin; first compound 0.09487 µM) | relative viability (Dinaciclib + Phenformin; first compound 0.3 µM) | relative viability (Dinaciclib + Dasatinib; first compound 0.009487 µM) | relative viability (Dinaciclib + Dasatinib; first compound 0.03 µM) | relative viability (Dinaciclib + Dasatinib; first compound 0.09487 µM) | relative viability (Dinaciclib + Dasatinib; first compound 0.3 µM) | relative viability (Dinaciclib + Lapatinib; first compound 0.009487 µM) | relative viability (Dinaciclib + Lapatinib; first compound 0.03 µM) | relative viability (Dinaciclib + Lapatinib; first compound 0.09487 µM) | relative viability (Dinaciclib + Lapatinib; first compound 0.3 µM) | relative viability (Dinaciclib + AZD7762; first compound 0.009487 µM) | relative viability (Dinaciclib + AZD7762; first compound 0.03 µM) | relative viability (Dinaciclib + AZD7762; first compound 0.09487 µM) | relative viability (Dinaciclib + AZD7762; first compound 0.3 µM)
1 | LK-2 | 0.849 | 0.274 | 0.232 | 0.199 | 0.274 | 0.142 | 0.156 | 0.125 | 0.267 | 0.141 | 0.115 | 0.144 | 0.712 | 0.182 | 0.102 | 0.176 | 0.448 | 0.116 | 0.0518 | 0.0532
2 | LOU-NH91 | 0.73 | 0.462 | 0.253 | 0.235 | 0.645 | 0.249 | 0.208 | 0.151 | 0.564 | 0.287 | 0.243 | 0.179 | 0.738 | 0.302 | 0.254 | 0.238 | 0.7 | 0.296 | 0.252 | 0.272
3 | LU99A | 0.37 | 0.133 | 0.116 | 0.0993 | 0.709 | 0.14 | 0.0878 | 0.132 | 0.514 | 0.142 | 0.115 | 0.124 | 0.759 | 0.121 | 0.13 | 0.127 | 0.322 | 0.11 | 0.106 | 0.115
4 | LXF-289 | 1.01 | 0.264 | 0.0715 | 0.0695 | 0.538 | 0.229 | 0.0748 | 0.0626 | 0.282 | 0.0717 | 0.0492 | 0.0472 | 0.926 | 0.167 | 0.106 | 0.0884 | 1.18 | 0.453 | 0.0752 | 0.0836
5 | NCI-H23 | 0.578 | 0.15 | 0.119 | 0.104 | 0.807 | 0.31 | 0.114 | 0.116 | 0.647 | 0.249 | 0.0991 | 0.114 | 0.31 | 0.128 | 0.12 | 0.129 | 0.246 | 0.125 | 0.107 | 0.0921
6 | NCI-H322M | 0.737 | 0.718 | 0.196 | 0.211 | 0.41 | 0.315 | 0.244 | 0.267 | 0.248 | 0.248 | 0.247 | 0.28 | 0.637 | 0.325 | 0.243 | 0.201 | 0.613 | 0.409 | 0.42 | 0.394
7 | NCI-H358 | 0.61 | 0.14 | 0.161 | 0.183 | 0.268 | 0.078 | 0.0729 | 0.0856 | 0.182 | 0.0918 | 0.0845 | 0.0762 | 0.341 | 0.216 | 0.196 | 0.188 | 0.548 | 0.16 | 0.151 | 0.188
